{"source": "patent US7713957B2", "about": "“Pharmaceutical composition containing gabapentin or pregabalin and N-type calcium channel antagonist” (Ajinomoto Co., Inc., priority 2002, dated 2010)", "key": {"N-type calcium channel": {"molecular_target": "T1, N-type calcium channel (Homo sapiens, UniProt Q00975)", "T1 construct": "host or cells: IMR-32 human neuroblastoma cells, differentiated with dibutyl cAMP and 5-bromodeoxyuridine for 10 to 14 days", "T1 sequence (Q00975 whole entry)": "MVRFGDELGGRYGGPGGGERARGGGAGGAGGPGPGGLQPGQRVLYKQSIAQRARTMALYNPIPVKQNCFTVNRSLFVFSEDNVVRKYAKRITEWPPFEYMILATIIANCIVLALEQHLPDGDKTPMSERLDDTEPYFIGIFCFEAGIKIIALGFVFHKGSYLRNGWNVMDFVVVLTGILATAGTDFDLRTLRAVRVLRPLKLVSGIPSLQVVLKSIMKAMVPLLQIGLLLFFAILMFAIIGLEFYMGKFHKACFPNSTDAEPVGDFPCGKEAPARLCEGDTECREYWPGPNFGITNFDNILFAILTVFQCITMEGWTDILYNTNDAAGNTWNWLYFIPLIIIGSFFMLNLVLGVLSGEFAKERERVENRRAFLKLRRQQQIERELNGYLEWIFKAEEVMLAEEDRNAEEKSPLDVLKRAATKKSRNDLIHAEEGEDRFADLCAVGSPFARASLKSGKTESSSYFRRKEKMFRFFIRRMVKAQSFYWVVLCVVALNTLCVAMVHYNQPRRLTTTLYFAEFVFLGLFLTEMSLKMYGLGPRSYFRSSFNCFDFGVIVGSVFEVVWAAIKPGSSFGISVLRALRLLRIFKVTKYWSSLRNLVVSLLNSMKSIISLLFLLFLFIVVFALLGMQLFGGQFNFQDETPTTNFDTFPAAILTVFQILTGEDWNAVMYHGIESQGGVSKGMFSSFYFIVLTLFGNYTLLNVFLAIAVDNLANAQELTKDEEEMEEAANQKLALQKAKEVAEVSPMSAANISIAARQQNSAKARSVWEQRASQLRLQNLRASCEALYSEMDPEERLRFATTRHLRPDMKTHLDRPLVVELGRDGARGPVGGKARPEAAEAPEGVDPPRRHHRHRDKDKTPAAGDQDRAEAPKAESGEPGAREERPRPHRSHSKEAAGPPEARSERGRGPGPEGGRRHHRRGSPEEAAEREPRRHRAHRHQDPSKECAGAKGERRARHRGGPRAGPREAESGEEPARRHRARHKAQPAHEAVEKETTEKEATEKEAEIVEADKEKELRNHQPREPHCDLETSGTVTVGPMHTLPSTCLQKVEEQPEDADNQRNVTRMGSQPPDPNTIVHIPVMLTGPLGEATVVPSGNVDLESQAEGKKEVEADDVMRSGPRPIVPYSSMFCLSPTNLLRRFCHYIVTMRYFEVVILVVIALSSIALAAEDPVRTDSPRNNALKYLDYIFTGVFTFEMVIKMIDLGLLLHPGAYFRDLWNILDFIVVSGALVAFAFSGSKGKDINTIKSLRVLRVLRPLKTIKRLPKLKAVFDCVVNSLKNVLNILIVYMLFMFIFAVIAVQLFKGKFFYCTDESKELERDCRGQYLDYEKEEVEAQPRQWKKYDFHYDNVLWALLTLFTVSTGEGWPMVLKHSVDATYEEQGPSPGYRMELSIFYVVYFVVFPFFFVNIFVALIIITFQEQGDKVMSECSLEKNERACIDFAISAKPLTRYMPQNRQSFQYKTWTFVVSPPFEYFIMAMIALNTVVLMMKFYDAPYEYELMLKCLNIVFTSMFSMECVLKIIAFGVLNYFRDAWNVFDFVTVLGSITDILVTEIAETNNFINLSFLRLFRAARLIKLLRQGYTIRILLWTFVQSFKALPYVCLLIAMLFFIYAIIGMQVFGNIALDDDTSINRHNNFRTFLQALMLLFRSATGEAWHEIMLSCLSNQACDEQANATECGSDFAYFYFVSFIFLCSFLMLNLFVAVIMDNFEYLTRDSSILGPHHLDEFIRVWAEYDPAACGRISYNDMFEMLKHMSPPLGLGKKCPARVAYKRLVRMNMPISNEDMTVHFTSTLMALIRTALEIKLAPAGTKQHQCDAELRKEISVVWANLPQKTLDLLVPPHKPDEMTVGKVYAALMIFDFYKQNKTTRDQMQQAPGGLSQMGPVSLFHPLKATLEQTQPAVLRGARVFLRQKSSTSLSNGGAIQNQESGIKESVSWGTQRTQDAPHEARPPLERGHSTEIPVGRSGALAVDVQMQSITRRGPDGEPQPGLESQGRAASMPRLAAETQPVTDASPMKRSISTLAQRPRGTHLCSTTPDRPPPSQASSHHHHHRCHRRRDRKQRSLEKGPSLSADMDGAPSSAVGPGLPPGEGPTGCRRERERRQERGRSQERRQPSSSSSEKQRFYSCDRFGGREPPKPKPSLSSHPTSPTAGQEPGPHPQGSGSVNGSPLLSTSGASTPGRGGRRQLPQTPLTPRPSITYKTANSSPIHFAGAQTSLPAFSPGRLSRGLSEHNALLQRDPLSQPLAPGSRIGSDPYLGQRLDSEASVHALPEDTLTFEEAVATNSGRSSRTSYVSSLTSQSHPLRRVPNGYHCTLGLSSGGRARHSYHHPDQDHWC", "T1 sequence (Q02641 whole entry partner)": "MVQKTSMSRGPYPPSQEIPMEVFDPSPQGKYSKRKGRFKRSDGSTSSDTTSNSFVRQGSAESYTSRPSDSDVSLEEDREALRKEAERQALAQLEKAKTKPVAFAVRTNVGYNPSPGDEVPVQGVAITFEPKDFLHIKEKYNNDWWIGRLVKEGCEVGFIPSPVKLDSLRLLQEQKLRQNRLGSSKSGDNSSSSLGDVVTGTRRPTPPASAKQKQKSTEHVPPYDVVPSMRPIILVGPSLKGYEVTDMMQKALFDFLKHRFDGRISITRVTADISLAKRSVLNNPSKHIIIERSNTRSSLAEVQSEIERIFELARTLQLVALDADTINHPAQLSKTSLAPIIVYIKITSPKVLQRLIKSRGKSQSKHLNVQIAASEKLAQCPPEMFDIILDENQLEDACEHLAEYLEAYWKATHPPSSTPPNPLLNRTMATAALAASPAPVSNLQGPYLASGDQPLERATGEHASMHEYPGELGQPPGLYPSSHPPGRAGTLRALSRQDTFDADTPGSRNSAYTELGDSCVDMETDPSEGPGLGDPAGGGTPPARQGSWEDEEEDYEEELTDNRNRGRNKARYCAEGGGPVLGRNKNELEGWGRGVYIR", "T1 sequence (P54289 25-956 partner limits assumed)": "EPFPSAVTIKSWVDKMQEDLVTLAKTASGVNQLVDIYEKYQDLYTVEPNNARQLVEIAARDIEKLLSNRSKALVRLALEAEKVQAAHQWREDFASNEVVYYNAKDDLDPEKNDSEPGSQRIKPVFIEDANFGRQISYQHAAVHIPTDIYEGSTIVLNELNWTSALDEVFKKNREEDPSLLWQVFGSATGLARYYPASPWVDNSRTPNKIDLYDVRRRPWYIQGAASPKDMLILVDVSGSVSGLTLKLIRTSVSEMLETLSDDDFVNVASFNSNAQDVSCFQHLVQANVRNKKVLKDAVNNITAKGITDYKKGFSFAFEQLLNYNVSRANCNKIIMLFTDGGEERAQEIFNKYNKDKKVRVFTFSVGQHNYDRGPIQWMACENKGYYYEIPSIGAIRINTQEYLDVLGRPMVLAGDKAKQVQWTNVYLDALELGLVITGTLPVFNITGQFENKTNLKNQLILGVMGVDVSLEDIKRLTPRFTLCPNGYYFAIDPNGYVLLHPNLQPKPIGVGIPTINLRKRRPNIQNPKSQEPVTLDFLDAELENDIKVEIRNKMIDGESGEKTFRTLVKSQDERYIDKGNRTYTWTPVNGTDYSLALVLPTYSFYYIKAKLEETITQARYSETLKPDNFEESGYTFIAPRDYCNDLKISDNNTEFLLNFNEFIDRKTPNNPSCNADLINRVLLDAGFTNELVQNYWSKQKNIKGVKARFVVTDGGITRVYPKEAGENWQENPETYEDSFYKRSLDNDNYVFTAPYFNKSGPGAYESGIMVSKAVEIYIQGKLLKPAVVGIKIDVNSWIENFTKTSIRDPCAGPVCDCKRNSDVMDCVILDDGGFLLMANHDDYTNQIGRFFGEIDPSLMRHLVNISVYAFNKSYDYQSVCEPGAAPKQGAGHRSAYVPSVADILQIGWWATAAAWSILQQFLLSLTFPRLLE", "T1 sequence (P54289 957-1103 partner limits assumed)": "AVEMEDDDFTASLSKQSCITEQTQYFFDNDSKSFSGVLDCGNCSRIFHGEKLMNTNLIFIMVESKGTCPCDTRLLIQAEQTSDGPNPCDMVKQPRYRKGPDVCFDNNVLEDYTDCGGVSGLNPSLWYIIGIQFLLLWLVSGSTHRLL", "assay": "Antagonistic activity on N-type calcium channel (fluorescence dye method, IMR-32 cells)", "assay_type": "cell-based", "conditions": "10 μM test compound, 60 mM KCl stimulation, 1 μM Nifedipine, read-out: Antagonistic activity on N-type calcium channels at 10 μM Inhibition rate (%)", "method": "Antagonistic Activity on N-Type Calcium Channel (Fluorescence Dye Method)\nHuman neuroblastoma cells IMR-32 were obtained from ATCC (American Type Culture Collection). The medium used was a Phenol Red-free Eagle minimum essential medium containing earle's salts supplement (GIBCO) supplemented with 2 mM of L-glutamine (GIBCO), 1 mM of sodium pyruvate (pH 6.5) (GIBCO), antibiotic/antimycotic mixture (GIBCO) and 10% fetal calf serum (Cell Culture Technologies). 3 ml of 1×10^5 cells/ml IMR-32 cells were spread on the glass bottom of a dish (Iwaki Glsss Co., Ltd.) having a diameter of 35 mm which had been treated with poly-L-lysin (SIGMA) and collagen (COLLAGEN VITROGEN 100; Collagen Co.). After the culture for 1 day, 1 mM (final concentration) of dibutyl cAMP and 2.5 μM (final concentration) of 5-bromodeoxyuridine (SIGMA) were added. After the culture for additional 10 to 14 days, the cells were subjected to the activity determination.\nThe medium for IMR-32 cells thus prepared was replaced with 1 ml of Phenol Red-free and earle's salts supplemented Eagle minimum essential medium (GIBCO) containing 2.5 μM fura-2/AM (Dojin Kagaku, Co.), and the incubation was conducted at 37° C. for 30 minutes. […] Antagonistic activity on N-type calcium channel was determined and analyzed using a fluorescence microscope (Nikon Corporation) and an image analysis device ARGUS 50 (Hamamatsu Photonics). […]"}, "Sprague-Dawley rats": {"system": "Sprague-Dawley rats", "assay": "Formalin test in rat pain models (flinching action, second phase)", "assay_type": "in vivo", "method": "Analgesic activities were determined in the formalin test. Four test groups [a control group (given a saline solution) and groups given 30, 100 and 300 mg/kg of gabapentin] each composed of 6 to 7 male Sprague-Dawley rats (SD rats, 9 weeks old) were used for the experiment. Gabapentin was dissolved in a saline solution.\n4 ml/kg of a saline solution or gabapentin was orally administered to the rats. Three hours after, the rats were tranquilized with halothane, and 2.5% formalin solution (100 μl) was injected subcutaneously to dorsal surface of the left hindpaw. Immediately thereafter, the rats were awaken from the anesthesia. […] The number of times of retracting action, i.e., flinching action of the hindpaw in which formalin had been injected, was counted for 1 minute at an interval of one minute until 5 minutes after the formalin injection, and for 1 minute at an interval of 5 minutes from 10 to 60 minutes after the injection. […] The total number of times of the flinching action observed 10 to 60 minutes after the formalin injection (the second phase) was taken as the index of the pain action.\nAnalgesic activities were determined in the formalin test. Four test groups [a control group, a group given the compound A (the compound of Referential Example 11: 3 mg/kg), a group given 100 mg/kg of gabapentin and a group given a combination of 3 mg/kg of the compound A and 100 mg/kg of gabapentin] each composed of 6 to 7 male Sprague-Dawley rats (SD rats, 9 weeks old) were used for the experiment. The administration volume to each group was as follows. In the control group, 5 ml/kg of 0.5% tragacanth solution and 4 ml/kg of a saline solution were given orally to the rats. In the group given the compound A, 5 ml/kg of the compound A suspended in 0.5% tragacanth solution and 4 ml/kg of a saline solution were given orally to them. In the group given gabapentin, 5 ml/kg of 0.5% tragacanth solution and 4 ml/kg of gabapentin dissolved in a saline solution were given orally to them. In the group given a combination of the compound A and gabapentin, 5 ml/kg of the compound A suspended in 0.5% tragacanth solution and 4 ml/kg of gabapentin dissolved in a saline solution were given orally to them.\nAnalgesic activities were determined in the formalin test. Four test groups [a control group, a group given the compound B (the compound of Referential Example 71: 3 mg/kg), a group given 100 mg/kg of gabapentin and a group given a combination of 3 mg/kg of the compound B and 100 mg/kg of gabapentin] each composed of 6 male Sprague-Dawley rats (SD rats, 9 weeks old) were used for the experiment. The administration volume to each group was as follows. In the control group, 3 ml/kg of polyethylene glycol 400 (PEG) and 4 ml/kg of a saline solution were given orally to the rats. In the group given the compound B, 3 ml/kg of the compound B dissolved in PEG and 4 ml/kg of a saline solution were given orally to them. In the group given gabapentin, 3 ml/kg of PEG and 4 ml/kg of gabapentin dissolved in a saline solution were given orally to them. In the group given the combination of compound B and gabapentin, 3 ml/kg of the compound B dissolved in PEG and 4 ml/kg of gabapentin dissolved in a saline solution were given orally to them.\nAnalgesic activities were determined in the formalin test. Four test groups [a control group (given a saline solution) and groups given 10, 30 and 100 mg/kg of pregabalin] each composed of 6 male Sprague-Dawley rats (SD rats, 9 weeks old) were used for the experiment. Pregabalin was dissolved in a saline solution. 4 ml/kg of a saline solution or pregabalin was orally administered to the rats.\nAnalgesic activities were determined in the formalin test."}, "[1]": {"conditions": "patients with post-herpetic neuralgia (Acta Neurol. Scand. 101:359-371, 2000); cited from earlier work"}, "[2]": {"conditions": "clinical use; cited from earlier work"}, "[3]": {"conditions": "cited from earlier work"}}, "note": "Where two headings read alike, the source gives them in different places.", "data": [{"smiles": "CC(C)(C)CC(=O)NCCCNC(=O)C=C1c2ccccc2C=Cc2ccccc21", "note": "[Example 41]", "values": [{"measurement": "inhibition at 10 µM", "setting": "N-type calcium channel", "value": 76, "unit": "%"}]}, {"smiles": "CC(C)(C)C(=O)NCCC(=O)N1CCC(=C2c3ccccc3C=Cc3ccccc32)CC1", "note": "[Referential Example 11, N-{3-[4-(5H-dibenzo[a, d] [7]annulen-5-ylidene)-1-piperidinyl]-3-oxopropyl}-2,2-dimethylpropanamide]", "values": [{"measurement": "inhibiting ratio of flinches", "setting": "Sprague-Dawley rats; Example 2, 3 mg/kg oral, suspended in 0.5% tragacanth", "value": 38, "unit": "%"}]}, {"smiles": "CC(C)(C)C(=O)N[C@H](CO)CCC(=O)N1CCC(=C2c3ccccc3C=Cc3ccccc32)CC1", "note": "[Referential Example 71, (S)-N-[4-[4-(5H-dibenzo[a,d] [7]annulen-5-ylidene)-1-piperidinyl]-1-(hydroxylmethyl)-4-oxobutyl]-2.2-dimethylpropanamide]", "values": [{"measurement": "inhibiting ratio of flinches", "setting": "Sprague-Dawley rats; Example 3, 3 mg/kg oral, dissolved in PEG", "value": 16, "unit": "%"}, {"measurement": "inhibiting ratio of flinches", "setting": "Sprague-Dawley rats; Example 5, 3 mg/kg oral, dissolved in PEG", "value": 7, "unit": "%"}]}, {"smiles": "NCC1(CC(=O)O)CCCCC1", "note": "[gabapentin, 1-(aminomethyl)-cyclohexaneacetic acid]", "values": [{"measurement": "treatment effectiveness", "setting": "[1]", "value": "approximately 60%"}, {"measurement": "inhibiting ratio of flinches", "setting": "Sprague-Dawley rats; Example 1, 30 mg/kg oral, vs control group", "value": 11, "unit": "%"}, {"measurement": "inhibiting ratio of flinches", "setting": "Sprague-Dawley rats; Example 1, 100 mg/kg oral, vs control group", "value": 42, "unit": "%"}, {"measurement": "inhibiting ratio of flinches", "setting": "Sprague-Dawley rats; Example 1, 300 mg/kg oral, vs control group", "value": 47, "unit": "%"}, {"measurement": "inhibiting ratio of flinches", "setting": "Sprague-Dawley rats; Example 2, 100 mg/kg oral", "value": 47, "unit": "%"}, {"measurement": "inhibiting ratio of flinches", "setting": "Sprague-Dawley rats; Example 3, 100 mg/kg oral", "value": 59, "unit": "%"}, {"measurement": "side-effects", "setting": "[2]", "value": "somnolence and dizziness"}, {"measurement": "motor function of the body", "setting": "[3]; whole body administration of 300 mg/kg or more", "value": "significant decrease in motor function of the body"}]}, {"smiles": "CC(C)C[C@H](CN)CC(=O)O", "note": "[pregabalin, (S)-3-(aminomethyl)-5-methylhexanoic acid]", "values": [{"measurement": "inhibiting ratio of flinches", "setting": "Sprague-Dawley rats; Example 4, 10 mg/kg oral, vs control group", "value": 31, "unit": "%"}, {"measurement": "inhibiting ratio of flinches", "setting": "Sprague-Dawley rats; Example 4, 30 mg/kg oral, vs control group", "value": 61, "unit": "%"}, {"measurement": "inhibiting ratio of flinches", "setting": "Sprague-Dawley rats; Example 4, 100 mg/kg oral, vs control group", "value": 61, "unit": "%"}, {"measurement": "inhibiting ratio of flinches", "setting": "Sprague-Dawley rats; Example 5, 30 mg/kg oral", "value": 48, "unit": "%"}, {"measurement": "side-effects", "setting": "[2]", "value": "somnolence and dizziness"}, {"measurement": "motor function of the body", "setting": "[3]; whole body administration of 100 mg/kg or more", "value": "significant decrease in motor function of the body"}]}]}
